“And” between values parts separate entries of the source, which are not always exact repeats. Equal values may be shown once. Read-outs that look alike come from different tables or passages of the source.
Tests used:
[1] = system: vincristine (VCR)-resistant mouse leukemia (P388/VCR) cells; assay: Antitumor agent potentiating effect in vincristine-resistant tumor bearing mouse (Example 11, i.p. 5 days); assay type: in vivo
Experimental: (§1) The potentiating effect of the antitumor agent (T/V) % was determined according to the formula shown below. Verapamil was employed as the positive Control compound. […] In the Tables, Compound 1 is the compound obtained in Example 1, Compound 2 that obtained in Example 2, Compound 3 that obtained in Example 3, Compound 4 that obtained in Example 4, and Compound 5 that obtained in Example 5. [formula]

rat rectum smooth muscle = assay: Inhibitory effects on potassium contracture in rat rectum smooth muscle; assay type: cell-based; conditions: 5 min, K contraction 5.6 to 56.0 mM, read-out: Inhibition ratio; for inhibition at 0.1 µM: 10^-7 M; for inhibition at 0.01 µM: 10^-8 M
Experimental: Rat rectum (about 1.5 cm) was isolated and suspended in a Magnus tube. A Locke solution was employed as the nutrient solution, and a contraction of the intestinum rectum was caused by changing the potassium (K) concentration of this solution from 5.6 mmol (mM) to 56.0 mM. This contraction was a contraction through a membrane dependent Ca-channel mediated contraction based on depolarization by a K concentration change. The contraction was recorded by an FD-transducer and polygraph. The compounds of the present invention were permitted to act 5 minutes before changing the K concentration, and simultaneously with changing the K concentration. […] A judgement was made 5 minutes after changing the K concentration, and the difference in contraction before the concentration change was indicated as an inhibition % value. Verapamil and nicardipine were employed as the positive control compound .

ICR mice = assay: acute toxicity test; conditions: mouse, in vivo;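 note: intraperitoneal dosing with deaths counted over 10 days of observation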
Experimental: Male 6-week-old ICR mice were divided into groups of 2 to 5 mice per group. […] The drugs to be tested were administered in varying amounts of 250 to 2000 mg/kg to 5 or 7 groups (a geometrical series of .cent.2), at a dose volume of 10 ml/kg. In the Table, the respective compounds have the same meanings as described above.

[2] = system: spontaneously hypertensive rats (SHR); conditions: rat, in vivo, ip
Experimental: The systolic blood pressure was measured by using spontaneously hypertensive rats (SHR), which are a model of hypertension when examine the hypotensive activities of the compounds of the present invention and the positive Control compound. The rats were warmed for 5 minutes in a warming box at 55° C., and their blood pressure then measured by a tail cuff plethysmograph. The compounds of the present invention were administered singly and intraperitoneally at a dose of 100 mg/kg and the positive Control compound was administered singly and intraperitoneally at a dose of 10 mg/kg. […] Blood pressure measurements were taken before administration and 60 minutes after administration. Nicardipine was employed as the positive Control compound.

[3] = system: vincristine (VCR)-resistant mouse leukemia (P388/VCR) cells; assay: Antitumor agent potentiating effect in vincristine-resistant tumor bearing mouse (Example 12, i.p.); assay type: in vivo
Experimental: as §1
The potentiating effect of the antitumor agent (T/V) % was determined as described above (Example 11). Nicardipine was employed as the positive Control compound, and was administered intraperitoneally for 10 days. […] In the Tables, Compound 6 is the compound obtained in Example 6, Compound 7 that obtained in Example 7, and Compound 8 that obtained in Example 8.

[4] = system: vincristine (VCR)-resistant mouse leukemia (P388/VCR) cells; assay: Antitumor agent potentiating effect in vincristine-resistant tumor bearing mouse (Example 13, oral compound, 10 days); assay type: in vivo
[5] = system: antitumor drug sensitive cells P388/S of mouse P388 leukemia cells; assay: VCR alone in mice bearing drug sensitive P388/S leukemia (Example 13, Table 8(B)); assay type: in vivo
Experimental: The compounds of this invention were administered orally after the treatment described above, and VCR was administered as described above. The progress thereof was observed and the survival days for respective animals were determined to obtain the survival ratio (T/C) % relative to the Control. The antitumor agent potentiating effect (T/V) % was determined as described above. In the Table, Compound 8 is the compound obtained in Example 8.

[6] = compound 100 mg/kg i.p. + VCR 30 μg/kg i.p.
[7] = compound alone 100 mg/kg i.p., no VCR
[8] = compound 50 mg/kg/day oral + VCR 100 μg/kg/day i.p.
[9] = compound 100 mg/kg/day oral + VCR 10 μg/kg/day i.p.
[10] = compound 100 mg/kg/day oral + VCR 30 μg/kg/day i.p.
[11] = compound 100 mg/kg/day oral + VCR 100 μg/kg/day i.p.
[12] = compound 200 mg/kg/day oral + VCR 10 μg/kg/day i.p.
[13] = compound 200 mg/kg/day oral + VCR 30 μg/kg/day i.p.
[14] = compound 200 mg/kg/day oral + VCR 100 μg/kg/day i.p.
[15] = compound 300 mg/kg/day oral + VCR 10 μg/kg/day i.p.
[16] = compound 300 mg/kg/day oral + VCR 30 μg/kg/day i.p.
[17] = positive control 50 mg/kg i.p., 10 days + VCR 30 μg/kg
[18] = positive control 75 mg/kg i.p., 10 days + VCR 30 μg/kg
[19] = positive control alone 50 mg/kg i.p., 10 days
[20] = positive control alone 75 mg/kg i.p., 10 days
[21] = VCR 30 μg/kg i.p. alone (reference = 100)
[22] = positive control 30 mg/kg + VCR 30 μg/kg
[23] = positive control 60 mg/kg + VCR 30 μg/kg

CC1=C(C(=O)OCc2ccccn2)C(C2=COCCO2)C(C(=O)OCc2ccccn2)=C(C)N1 [Compound 1, bis(2-pyridylmethyl) 4-[2-(5,6-dihydro-p-dioxinyl)]-2,6-dimethyl-1,4-dihydropyridine-3,5-dicarboxylate]
Potentiating effect T/V [1, 6]: 116%
Survival Days (Mean ± SD) [1, 6]: 14.5 ± 1.6 days
Survival ratio T/C [1, 6]: 121%
Survival Days (Mean ± SD) [1, 7]: 12.2 ± 0.8 days
Survival ratio T/C [1, 7]: 102%
inhibition at 0.1 µM (rat rectum smooth muscle): 11.2%
Mortality (ICR mice): 0/2

CC1=C(C(=O)OCCc2ccccn2)C(C2=COCCO2)C(C(=O)OCCc2ccccn2)=C(C)N1 [Compound 4, bis[2-(2-pyridyl)ethyl]4-[2-(5,6-dihydro-p-dioxinyl)]-2,6-dimethyl-1,4-dihydropyridine-3,5-dicarboxylate]
Potentiating effect T/V [1, 6]: 121%
Survival Days (Mean ± SD) [1, 6]: 13.7 ± 1.6 days
Survival ratio T/C [1, 6]: 126%
inhibition at 0.1 µM (rat rectum smooth muscle): 5.2%
inhibition at 0.01 µM (rat rectum smooth muscle): -6.9%

CCc1ccc(COC(=O)C2=C(C)NC(C)=C(C(=O)OCc3ccc(CC)cn3)C2C2=COCCO2)nc1 [Compound 5, bis[2-(5-ethylpyridyl)methyl]4-[2-(5,6-dihydro-p-dioxinyl)-]2,6-dimethyl-1,4-dihydropyridine-3,5-dicarboxylate]
Potentiating effect T/V [1, 6]: 131%
Survival Days (Mean ± SD) [1, 6]: 14.8 ± 1.2 days
Survival ratio T/C [1, 6]: 136%
Mortality (ICR mice): 0/2 and 0/3
Blood pressure change ([2]; 100 mg/kg): -34 mmHg
Systolic Blood Pressure 60 minutes after administration ([2]; 100 mg/kg): 187 mmHg

CC1=C(C(=O)OCc2ccccn2)C(C2=CSCCS2)C(C(=O)OCc2ccccn2)=C(C)N1 [Compound 6, bis(2-pyridylmethyl) 4-[2-(5,6-dihydro-1,4-dithiinyl)]-2,6-dimethyl-1,4-dihydropyridine-3,5-dicarboxylate]
Potentiating effect T/V [3, 6]: 125%
Survival Days (Mean ± SD) [3, 6]: 14.2 ± 1.2 days
Survival ratio T/C [3, 6]: 138%
Survival Days (Mean ± SD) [3, 7]: 10.8 ± 0.8 days
Survival ratio T/C [3, 7]: 105%
Mortality (ICR mice): 0/2 and 0/3
Blood pressure change ([2]; 100 mg/kg): -30 mmHg
Systolic Blood Pressure 60 minutes after administration ([2]; 100 mg/kg): 191 mmHg

CC1=C(C(=O)OCc2cccnc2)C(C2=CSCCS2)C(C(=O)OCc2cccnc2)=C(C)N1 [Compound 7, bis(3-pyridylmethyl) 4-[2-(5,6-dihydro-1,4-dithiinyl)]-2,6-dimethyl-1,4-dihydropyridine-3,5-dicarboxylate]
Potentiating effect T/V [3, 6]: 118%
Survival Days (Mean ± SD) [3, 6]: 13.5 ± 0.8 days
Survival ratio T/C [3, 6]: 131%
Survival Days (Mean ± SD) [3, 7]: 11.0 ± 0.6 days
Survival ratio T/C [3, 7]: 107%
Blood pressure change ([2]; 100 mg/kg): -38 mmHg
Systolic Blood Pressure 60 minutes after administration ([2]; 100 mg/kg): 189 mmHg

CC1=C(C(=O)OCc2ccncc2)C(C2=C(C)SCCS2)C(C(=O)OCc2ccncc2)=C(C)N1 [Compound 8, bis(4-pyridylmethyl) 4-[2-(3-methyl-5,6-dihydro-1,4-dithiinyl)-]2,6-dimethyl-1,-4-dihydropyridine-3,5-dicarboxylate]
Potentiating effect T/V [3, 6]: 138%
Survival Days (Mean ± SD) [3, 6]: 13.5 ± 0.8 days
Survival ratio T/C [3, 6]: 138%
Survival Days (Mean ± SD) [3, 7]: 9.7 ± 1.0 days
Survival ratio T/C [3, 7]: 99%
life prolonging effect compared with VCR alone in P388/S ([4]; combination with VCR, P388/VCR, Table 8): has an effect comparable to the prolonging effect when VCR is administered alone to P388/S which is a vincristine-sensitive clone (Table 8), thus completely overcoming the VCR resistance
Potentiating effect T/V [4, 8]: 120%
Survival Days (Mean ± SD) [4, 8]: 12.5 ± 1.6 days
Survival ratio T/C [4, 8]: 132%
Potentiating effect T/V [4, 9]: 120%
Survival Days (Mean ± SD) [4, 9]: 11.3 ± 0.8 days
Survival ratio T/C [4, 9]: 119%
Potentiating effect T/V [4, 10]: 118%
Survival Days (Mean ± SD) [4, 10]: 12.2 ± 1.2 days
Survival ratio T/C [4, 10]: 128%
Potentiating effect T/V [4, 11]: 130%
Survival Days (Mean ± SD) [4, 11]: 13.5 ± 1.4 days
Survival ratio T/C [4, 11]: 142%
Potentiating effect T/V [4, 12]: 131%
Survival Days (Mean ± SD) [4, 12]: 12.3 ± 0.5 days
Survival ratio T/C [4, 12]: 129%
Potentiating effect T/V [4, 13]: 139%
Survival Days (Mean ± SD) [4, 13]: 14.3 ± 1.0 days
Survival ratio T/C [4, 13]: 151%
Potentiating effect T/V [4, 14]: 156%
Survival Days (Mean ± SD) [4, 14]: 16.2 ± 2.4 days
Survival ratio T/C [4, 14]: 171%
Potentiating effect T/V [4, 15]: 144%
Survival Days (Mean ± SD) [4, 15]: 13.5 ± 0.5 days
Survival ratio T/C [4, 15]: 142%
Potentiating effect T/V [4, 16]: 149%
Survival Days (Mean ± SD) [4, 16]: 15.3 ± 1.5 days
Survival ratio T/C [4, 16]: 161%
Blood pressure change ([2]; 100 mg/kg): -11 mmHg
Systolic Blood Pressure 60 minutes after administration ([2]; 100 mg/kg): 187 mmHg

COC(=O)C1=C(C)NC(C)=C(C(=O)OCCN(C)Cc2ccccc2)C1c1cccc([N+](=O)[O-])c1 (stereo not drawn) [Nicardipine, reference compound]
Potentiating effect T/V [3, 17]: 112%
Survival Days (Mean ± SD) [3, 17]: 12.3 ± 0.8 days
Survival ratio T/C [3, 17]: 128%
Potentiating effect T/V [3, 18]: 125%
Survival Days (Mean ± SD) [3, 18]: 13.7 ± 1.2 days
Survival ratio T/C [3, 18]: 143%
Survival Days (Mean ± SD) [3, 19]: 10.6 ± 1.5 days
Survival ratio T/C [3, 19]: 110%
Survival Days (Mean ± SD) [3, 20]: 11.2 ± 1.1 days
Survival ratio T/C [3, 20]: 117%
inhibition at 0.01 µM (rat rectum smooth muscle): 73.1%
Blood pressure change ([2]; 10 mg/kg): -122 mmHg
Systolic Blood Pressure 60 minutes after administration ([2]; 10 mg/kg): 86 mmHg

CC[C@]1(O)C[C@H]2CN(CCc3c([nH]c4ccccc34)[C@@](C(=O)OC)(c3cc4c(cc3OC)N(C=O)[C@H]3[C@@](O)(C(=O)OC)[C@H](OC(C)=O)[C@]5(CC)C=CCN6CC[C@]43[C@@H]65)C2)C1 [VCR, vincristine, reference compound]
Survival Days (Mean ± SD) ([1]; VCR 30 μg/kg i.p. alone): 12.5 ± 1.4 days and 10.5 ± 0.8 days and 11.3 ± 1.0 days and 11.8 ± 1.3 days
Survival ratio T/C ([1]; VCR 30 μg/kg i.p. alone): 104%
Potentiating effect T/V [1, 21]: 100%
Survival Days (Mean ± SD) ([3]; VCR 30 μg/kg i.p. alone): 11.4 ± 1.0 days and 9.8 ± 0.8 days and 11.0 ± 1.8 days
Survival ratio T/C ([3]; VCR 30 μg/kg i.p. alone): 100%
Potentiating effect T/V [3, 21]: 100%
Survival Days (Mean ± SD) ([4]; VCR 10 μg/kg/day i.p. alone): 9.4 ± 0.7 days
Survival ratio T/C ([4]; VCR 10 μg/kg/day i.p. alone): 99%
Potentiating effect T/V ([4]; VCR 10 μg/kg/day i.p. alone (reference = 100)): 100%
Survival Days (Mean ± SD) ([4]; VCR 30 μg/kg/day i.p. alone): 10.3 ± 1.5 days
Potentiating effect T/V ([4]; VCR 30 μg/kg/day i.p. alone (reference = 100)): 100%
Survival Days (Mean ± SD) ([4]; VCR 100 μg/kg/day i.p. alone): 10.4 ± 0.9 days
Potentiating effect T/V ([4]; VCR 100 μg/kg/day i.p. alone (reference = 100)): 100%
Survival Days (Mean ± SD) ([5]; VCR 10 μg/kg/day alone): 11.8 ± 0.8 days
Survival ratio T/C ([5]; VCR 10 μg/kg/day alone): 144%
Survival Days (Mean ± SD) ([5]; VCR 30 μg/kg/day alone): 13.3 ± 0.9 days
Survival ratio T/C ([5]; VCR 30 μg/kg/day alone): 162%
Survival Days (Mean ± SD) ([5]; VCR 100 μg/kg/day alone): 15.2 ± 0.8 days
Survival ratio T/C ([5]; VCR 100 μg/kg/day alone): 185%

COc1ccc(CCN(C)CCCC(C#N)(c2ccc(OC)c(OC)c2)C(C)C)cc1OC (stereo not drawn) [Verapamil, reference compound]
Potentiating effect T/V [1, 22]: 121%
Survival Days (Mean ± SD) [1, 22]: 14.3 ± 1.6 days
Survival ratio T/C [1, 22]: 134%
Potentiating effect T/V [1, 23]: 130%
Survival Days (Mean ± SD) [1, 23]: 15.3 ± 0.5 days
Survival ratio T/C [1, 23]: 143%
inhibition at 0.1 µM (rat rectum smooth muscle): 50.2%
inhibition at 0.01 µM (rat rectum smooth muscle): 13.6%
